“And” between values parts separate entries of the source, which are not always exact repeats. Equal values may be shown once.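 1) Cells in 96-well plates. 2) Compound, 48 h, 5 concentrations. 3) Linear interpolation between surrounding doses. 4) Unreached endpoint = highest concentration. The concentration for 50% growth inhibition is given as GI50. The concentration for full growth arrest is given as TGI.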 Bounds are passed on as bounds.

Data on seven compounds can be found in PubChem BioAssay (NCI).

Some test systems named below: NCI-H226 lung; K-562 leukemia; OVCAR-8 ovarian; CCRF-CEM leukemia; SNB-75 CNS; DU-145 prostate; NCI-H460 lung; KM12 colon; UO-31 renal; MOLT-4 leukemia.
What all share (assay): DTP human tumour cell line panel, 48 h

Broadly, the GI50 is the concentration at which growth is held to half of that of the control. As a reminder, the TGI is the concentration at which net growth stops. A higher TGI goes with less potent growth arrest. For `c1ccc(Nn2c(CCCCCCCCc3nnc(COc4ccccc4)n3Nc3ccccc3)nnc2COc2ccccc2)cc1`, the GI50 in the experiment on NCI-H226 lung is 15.6 µM and 70.9 µM; in the experiment on K-562 leukemia, 3.71 µM and 2.17 µM; in the experiment on OVCAR-8 ovarian it was 40 µM and 23.9 µM; in the experiment with CCRF-CEM leukemia, 2.91 µM; in the experiment on SNB-75 CNS it was 48.8 µM and 49.2 µM; with DU-145 prostate, 35 µM and > 300 µM. In addition, the GI50 was 6.34 µM and 12.9 µM in the experiment with NCI-H460 lung; 5.7 µM and 2.69 µM in the experiment on KM12 colon; 5.27 µM and 8.49 µM in the experiment on UO-31 renal; 14.5 µM in the experiment on MOLT-4 leukemia. In addition, the TGI in the experiment with NCI-H226 lung, in the experiment with K-562 leukemia, with OVCAR-8 ovarian, with SNB-75 CNS, with DU-145 prostate and in the experiment with NCI-H460 lung was greater than 300 µM throughout. In addition, the TGI in the experiment on KM12 colon, in the experiment with UO-31 renal and in the experiment on MOLT-4 leukemia was greater than 300 µM each time.

As to `Oc1ccc2ccccc2c1C1NN=C(c2ccccc2)S1` (stereo not drawn), the GI50 in the experiment with NCI-H226 lung is 0.647 µM; in the experiment on K-562 leukemia it was 0.504 µM; in the experiment on OVCAR-8 ovarian, 0.439 µM; in the experiment with CCRF-CEM leukemia it was 0.359 µM; in the experiment on SNB-75 CNS, 1.02 µM; in the experiment with DU-145 prostate, 0.479 µM. The GI50 is 0.34 µM in the experiment with NCI-H460 lung, 0.409 µM in the experiment with KM12 colon, 0.409 µM with UO-31 renal and 0.467 µM in the experiment on MOLT-4 leukemia. In addition, the TGI in the experiment with NCI-H226 lung was 14.2 µM; in the experiment on K-562 leukemia it was greater than 100 µM; in the experiment on OVCAR-8 ovarian, greater than 100 µM; with CCRF-CEM leukemia it was greater than 100 µM; with SNB-75 CNS it was 32.2 µM; with DU-145 prostate, 37.2 µM. In addition, the TGI with NCI-H460 lung is 11 µM; with KM12 colon, 32.9 µM; with UO-31 renal, greater than 20.4 µM; with MOLT-4 leukemia, greater than 56.9 µM.

With `CC(=O)OC1CC[C@@]2(C)C(CC[C@]3(C)C2CC=C2[C@@H]4CC(C)(C)CCC4(C)CCC23C)[C@@]1(C)C(=O)O` (stereo partly drawn), the TGI is 50.2 µM with NCI-H226 lung; 61.9 µM with K-562 leukemia; 36.9 µM in the experiment on OVCAR-8 ovarian; greater than 87.9 µM in the experiment with CCRF-CEM leukemia; 48.9 µM with SNB-75 CNS; 46 µM with DU-145 prostate. In addition, the total growth inhibition concentration (TGI) turned out to be 37 µM in the experiment on NCI-H460 lung, 52.3 µM in the experiment on KM12 colon, 35.9 µM in the experiment with UO-31 renal and 47.3 µM with MOLT-4 leukemia.

Turning to `CC(C)[NH-].CC(C)[NH-].O.O.[Cl][Pt+2][Cl]`, the GI50 is 66 µM in the experiment on NCI-H226 lung; 39.1 µM with K-562 leukemia; 36.5 µM in the experiment on OVCAR-8 ovarian; 6.59 µM in the experiment on CCRF-CEM leukemia; 94.4 µM with SNB-75 CNS; 38.7 µM with DU-145 prostate. Also, the GI50 is 8.8 µM in the experiment with NCI-H460 lung, 96.1 µM with KM12 colon, 147 µM in the experiment with UO-31 renal and 10.2 µM in the experiment on MOLT-4 leukemia. Besides, the TGI in the experiment on NCI-H226 lung turned out to be 259 µM; in the experiment on K-562 leukemia, 179 µM; with OVCAR-8 ovarian, 167 µM; in the experiment with CCRF-CEM leukemia, 97.7 µM; in the experiment on SNB-75 CNS it was 308 µM; in the experiment with DU-145 prostate, 332 µM. The TGI with NCI-H460 lung is 62.3 µM; in the experiment on KM12 colon, 251 µM; with UO-31 renal, 356 µM; with MOLT-4 leukemia it was 132 µM.

As for `COc1cc2c(cc1OC)-c1ccc3cc4c(cc3c1N(CCN(C)C)C2)OCO4`, the GI50 was 0.772 µM in the experiment with NCI-H226 lung; 0.262 µM with K-562 leukemia; 0.51 µM with OVCAR-8 ovarian; 0.148 µM with CCRF-CEM leukemia; 0.35 µM with SNB-75 CNS; 0.377 µM in the experiment on DU-145 prostate. Besides, the GI50 was 0.256 µM with NCI-H460 lung, 0.97 µM in the experiment on KM12 colon, 1.77 µM with UO-31 renal and 0.158 µM in the experiment on MOLT-4 leukemia. For the same compound, the TGI in the experiment with NCI-H226 lung was determined as 2.52 µM; in the experiment with K-562 leukemia, 1.57 µM; in the experiment with OVCAR-8 ovarian it was 3.44 µM; with CCRF-CEM leukemia, 3.73 µM; in the experiment on SNB-75 CNS, 6 µM; with DU-145 prostate it was 8.76 µM. For the same compound, the TGI turned out to be 1.2 µM in the experiment on NCI-H460 lung, 2.47 µM in the experiment with KM12 colon, 5.77 µM in the experiment with UO-31 renal and 2.57 µM in the experiment with MOLT-4 leukemia.

In the case of `C[C@@H](NC(=O)[C@@H](CC(=O)N1CCC(N2CCCCC2)CC1)N1C(=O)[C@@H](N2C(=O)OC[C@@H]2c2ccccc2)[C@H]1/C=C/c1cccc(Cl)c1)c1ccccc1`, the GI50 with NCI-H226 lung is 14.8 µM; in the experiment with K-562 leukemia, 2.63 µM; in the experiment with OVCAR-8 ovarian, 4.3 µM; with CCRF-CEM leukemia, 2.73 µM; with SNB-75 CNS it was 1.71 µM; in the experiment on DU-145 prostate it was 4.03 µM. Also, the GI50 is 2.02 µM in the experiment on NCI-H460 lung, 2.72 µM in the experiment on KM12 colon, 2.03 µM with UO-31 renal and 3.2 µM in the experiment on MOLT-4 leukemia. In addition, the TGI came out at 31.2 µM in the experiment on NCI-H226 lung; 5.47 µM with K-562 leukemia; 16.6 µM in the experiment with OVCAR-8 ovarian; 7.93 µM in the experiment on CCRF-CEM leukemia; 4.09 µM with SNB-75 CNS; 14.3 µM in the experiment with DU-145 prostate. In addition, the TGI in the experiment on NCI-H460 lung amounted to 3.95 µM; with KM12 colon it was 9.63 µM; with UO-31 renal it was 5.35 µM; in the experiment with MOLT-4 leukemia, 10.7 µM.

On to `COc1ccc2c3c(c4ccccc4cc13)C(=O)N(CCN(C)CCN)C2=O`, for which the GI50 is 0.145 µM with NCI-H226 lung; 0.204 µM in the experiment on K-562 leukemia; 0.107 µM with OVCAR-8 ovarian; 0.021 µM with CCRF-CEM leukemia; 0.166 µM in the experiment with SNB-75 CNS; 0.0663 µM in the experiment with DU-145 prostate. In addition, the GI50 in the experiment with NCI-H460 lung is 0.0129 µM; with KM12 colon it was 0.171 µM; in the experiment with UO-31 renal, 0.065 µM. The TGI in the experiment on NCI-H226 lung amounted to 0.383 µM; with K-562 leukemia it was 1.32 µM; with OVCAR-8 ovarian, 1.61 µM; with CCRF-CEM leukemia, 0.22 µM; in the experiment on SNB-75 CNS, 1.37 µM; in the experiment on DU-145 prostate it was 1.04 µM. In addition, the TGI in the experiment with NCI-H460 lung was 0.323 µM; in the experiment on KM12 colon it was 1.28 µM; in the experiment with UO-31 renal, 1.35 µM; in the experiment on MOLT-4 leukemia, 0.301 µM.
